Measurements: patent US20210321613A1, “Process for Preparation of Thiocyclam Base and Salt” (ARYSTA L[…], priority 2018, published 2021)

Assays:
Assay type in all cases: in vivo
[1] = system: Soybean looper, Chrysodeixis includens; experiment: Soybean looper bioassay by diet surface incorporation, mortality; settings: for LC50: Chrysodeixis includens, 72 h, 3rd larval stage, diet surface incorporation, mortality 3 days after treatment (D + 3), read-out: LC50 (μg of a.i/ml of diet)
Text: Soybean looper, Chrysodeixis includens—3rd larval stage
Bioassay by diet surface incorporation Mortality assessment 3 days after treatment a.i. refers to active ingredient
(§1) LC stands for “Lethal Concentration”. LC values refer to the concentration of a chemical required to kill a certain proportion of a population of pests. The concentration of the chemical that kills 50 percent of the pests during the observation period is the LC50 value and a concentration that kills 90 percent of a population is LC90, LD stands for “Lethal Dose”. LD50 is the amount of an ingested substance that kills 50 percent of a test sample and […] is the lethal dose that kills 90 percent of the test sample. […] In example 1, approximately 4 times less thiocyclam hydrochloride was ingested by the moths at LC50 compared to cartap and approximately 9 times less at LC90 compared to cartap. […] In example 7, all three insecticides performed similarly to eliminate the aphids on radish plants. […] The use of the thiocyclam hydrochloride composition embodiments is in no way restricted to these genera, but also extends in the same manner to other insects and other crops.

Aphids, Myzus persicae = experiment: Aphid larvae on radish, boom sprayer application (IRAC n°019 adapted), mortality; settings: for LD50 (g a.iJha) / LD90 (g al./ha): mortality 3 days after application (D + 3); for LD50 (g al./ha) / LD90 (g alJha): mortality 4 days after application (D + 4)
Text: Aphids, Myzus persicae—larvae
Study based on IRAC n°019 methods, application method adapted Plant: radish Application on petri dish with larvae with a boom sprayer apparatus Assessment of mortality 3 and 4 days after application a.i. refers to active ingredient
as §1

[2] = system: White flies, Trialeurodes vaporarium; experiment: White fly larvae on bean, boom sprayer application (IRAC n°015 adapted), mortality; settings: for LD50 (g al/ha) / LD90 (g a.i/ha): mortality 9 days after application (D + 9); for LD50 (g a.i./ha) / LD90 (g a.i./ha): mortality 14 days after application (D + 14)
Text: White flies, Trialeurodes vaporarium—larvae
Study based on IRAC n°015 methods, stage and application method adapted Plant: bean Application: On the petri dish with larvae with a boom sprayer apparatus Assessment of mortality at 7, 9 and 14 days after application a.i. refers to active ingredient
as §1

[3] = system: Coding moth, Cydia pomonella
Text: Coding moth, Cydia pomonella—onate
larvae Bioassay by diet incorporation; Mortality assessment 2 days after treatment a.i. refers to active ingredient
as §1

Row | Structure (SMILES) | LC50 [1] | LD50 (g a.iJha) (Aphids, Myzus persicae) | LD90 (g al./ha) (Aphids, Myzus persicae) | LD50 (g al./ha) (Aphids, Myzus persicae) | LD90 (g alJha) (Aphids, Myzus persicae) | LD50 (g al/ha) ([2]; larvae, bean) | LD90 (g a.i/ha) ([2]; larvae, bean) | LD50 (g a.i./ha) ([2]; larvae, bean) | LD90 (g a.i./ha) ([2]; larvae, bean) | times less ingested by the moths at LC50 compared to cartap ([3]; compared to cartap, LC50) | times less at LC90 compared to cartap ([3]; compared to cartap, LC90) | LC50 and LC90 compared to thiocyclam oxalate ([3]; compared to thiocyclam oxalate) | LC50 achieved with times less than cartap ([1]; compared to cartap, LC50) | LC90 compared to the concentration of cartap ([1]; compared to cartap, LC90) | LC50 achieved with times less than thiocyclam oxalate ([1]; compared to thiocyclam oxalate, LC50) | LC90 compared to thiocyclam oxalate ([1]; compared to thiocyclam oxalate, LC90) | LD90 compared to cartap ([2]; days 7 and 9) | LD90 (g ai./ha) ([2]; larvae, bean, mortality 7 days after application (D + 7))
1 | CN(C)C(CSC(N)=O)CSC(N)=O [Cartap, reference compound] | 53.1 µg/mL | <18.18 g a.iJha | 36.70 g al./ha | <18.18 g al./ha | 16 g alJha | 15.6 g al/ha | 4,566.3 g a.i/ha | 10.4 g a.i./ha | 910.4 g a.i./ha |  |  |  |  |  |  |  |  | 
2 | CN(C)C1CSSSC1.Cl [Thiocyclam HCl, N,N-dimethyl-1,2,3-trithian-5-ylamine hydrochloride] | 8.99 µg/mL | 12.04 g a.iJha | 30.51 g al./ha | 7.66 g al./ha | 27.07 g alJha | 2.23 g al/ha | 4,905 g a.i/ha | 0.82 g a.i./ha | 7,910 g a.i./ha | approximately 4 times | approximately 9 times | significantly lower concentrations | approximately 6 times | more than three times lower | approximately 20 times | orders of magnitude smaller | lower application concentration compared to cartap | 1,899 g ai./ha
